Reference: patent US9642897B2, “Treatment of bone diseases” (THE UNIVERSITY OF SYDNEY, priority 2011, dated 2017)
“Also recorded” adds a separate entry of the source.

How the values were obtained:
[1] = Therapeutic safety of oral PA: weight, water consumption, survival; type: in vivo, C57BL/6 mice; details: for Weight: after 6 weeks; for Water left: initial volume 500 mL, weekly average
Experimental: Nine-month-old oophorectomised (OVX) and SHAM-operated C57BL/6 mice (n=24 per group) were obtained from the Animal Resources Centre (Perth, Wash.). After 2 weeks of acclimation, mice were divided into four groups (Table 2) and received treatment in their drinking water for a total of 6 weeks. Mice treated with plain water were used as controls. Mice were housed in cages in a limited access room.
Water left in the bottle (initial volume of 500 mL) was also quantified every week. […] These volumes correspond with the drinking pattern previously reported in this mouse model. (iii) Effect of Oral PA on Mineral Absorption in OVX Mice

[2] = system: bone marrow stromal cells (BMSC) from IDO-1 KO and WT mice; assay: Osteogenic differentiation of BMSC from IDO-1 KO and WT mice (alizarin red); type: cell-based; details: vs vehicle
Experimental: One side tibiae from 9-month-old IDO-1^−/− and IDO-1^+/+ mice (n=6 per group) were flushed using a 21-gauge needle attached to a 10 ml syringe filled with Dulbecco's modified Eagle's medium (DME) (GIBCO BRL, Gaithersburg, Md., USA). The bone marrow cells were filtered through a cell strainer with a 70-micron nylon mesh (BD Bioscience, Bedford, Mass., USA) and plated in 10 cm^2 tissue culture dishes. The cells were incubated in growth medium at 37° C. with 5% humidified CO2 and isolated by their adherence to tissue culture plastic. Medium was aspirated and replaced with fresh medium every 2 to 3 days to remove non-adherent cells. The adherent MSC were grown to confluency for about 7 days and defined as MSC at passage 0, harvested with 0.25% trypsin and 1 mM EDTA for 5 min at 37° C., diluted 1:3 in growth medium, plated and grown to confluency for further expansion. After 2nd and 3rd passages, MSC were used for subsequent experiments.
To induce differentiation, a total of 10^4 cells were diluted in osteogenic medium and plated in 24 dishes per group in the presence or absence of either quinolinic or picolinic acid. Media was aspirated and replaced with fresh osteogenic medium every 3 days. At 21 days, medium was removed and cultures were fixed in 10% v/v formol/saline solution for 5 min. Cultures were stained with Alizarin Red, which was then extracted and quantified at 570 nm.

Runx2 and OCN = assay: RT-PCR of Runx2 and OCN in bone marrow cells of PA-treated mice; type: in vivo, C57BL/6 mice; details: all PA-treated groups vs vehicle
Experimental: Bone marrow cells were flushed and isolated as previously described. Total RNA was extracted from marrow cells using a QIAGEN RNeasy Mini extraction kit following manufacturer's instructions (QIAGEN Pty, Doncaster, VIC, Australia; cat#74104). First strand complementary DNA (cDNA) synthesis was performed using 200 ng of total RNA, 50 ng random hexamers and 50 units reverse transcriptase at 42° C. for 1 hour, as described by manufacturer (Bioline Australia Pty, Alexandria, NSW, Australia; cat# BIO-65025). Real-time PCR for expressed genes as markers for osteogenesis was performed in duplicate in a total reaction volume of 25 μl, 10% of which was cDNA (or water for non-template control), 3 mM MgCl2 and 250 nM of each forward and reverse specific primer for target genes and normalizer. Primers for specific detection of mRNA expression included: […]
All PCRs were performed in a Corbett Rotor-Gene™ 3000 (QIAGEN Pty) using SYBR green with no-ROX reaction mix and a standard thermal profile as described by supplier (Bioline Australia Pty, Alexandria, NSW, Australia; cat# QT6750-02). Quantitative RT-PCR data was defined by threshold cycle (Ct) normalized for the housekeeping gene glyceraldehyde-3-phosphate dehydrogenase (GAPDH): […]

[3] = system: mesenchymal stem cells (MSC); assay: Mineralization (alizarin red staining) of osteogenic differentiating MSC; type: cell-based, human; details: MSC in OIM, 2 weeks
Experimental: Human mesenchymal stem cells (MSC) (BioWhittaker, Walkersville, Md., USA) were plated at a density of 5×10^5 cells per well in 150 cm^2 dishes containing MSC growth medium (GM) (BioWhittaker, Walkersville, Md., USA) with 10% fetal calf serum (FCS) and incubated at 37° C. After the cells reached 60% confluence, media was replaced with either GM or osteoblastogenesis induction media (OIM) (prepared with MSCGM, 10% FCS, […] dexamethasone, 10 mmol/L β glycerol phosphate and 50 μg/mL ascorbic acid) for 21 days. Media was changed every three days. Media obtained at the beginning of the 1st, 2nd and 3rd wk of differentiation as well as conditioned media were collected for measurement of IFNγ. Concentrations of IFNγ in the conditioned media were measured from both GM and OM treated cells using Human […] DuoSet ELISA Development Kit (R&D Systems, Minneapolis, Mich., USA). To compare between the osteogenic and the immune effect of IFNγ, Jurkat cells and human T lymphocytes were plated at a density of 5×10^5 cells per well in 150 cm^2 dishes containing RPMI media.
Subsequently, the effect of chemical inhibition/stimulation of the intermediate and end products of kynurenine activation on osteogenic differentiating MSC was then characterised.
These compounds were added to the MSC media on day one of differentiation. Cells were treated for […]. Media was changed every three days. After three weeks of treatment, osteoblastogenesis and changes in osteogenic genes were quantified as described above.

SMILES: O=C(O)c1ccccn1 [PA, pyridine-2-carboxylic acid]
- Weight ([1]; OVX, PA250 (250 mg/kg/d)): 26 ± 1.6 gm
- Water left ([1]; OVX, PA250): 195 ± 28 ml/week
- Weight ([1]; OVX, PA500 (500 mg/kg/d)): 28 ± 0.4 gm
- Water left ([1]; OVX, PA500): 195 ± 35 ml/week
- Weight ([1]; OVX, PA1000 (1 gm/kg/d)): 26 ± 1.3 gm
- Water left ([1]; OVX, PA1000): 250 ± 38 ml/week
- Weight ([1]; Sham, PA250 (250 mg/kg/d)): 27 ± 2.0 gm
- Water left ([1]; Sham, PA250): 200 ± 32 ml/week
- Weight ([1]; Sham, PA500 (500 mg/kg/d)): 26 ± 2.4 gm
- Water left ([1]; Sham, PA500): 155 ± 35 ml/week
- Weight ([1]; Sham, PA1000 (1 gm/kg/d)): 26 ± 1.3 gm
- Water left ([1]; Sham, PA1000): 260 ± 45 ml/week
- mice survival rate ([1]; female, C57BL/6, mouse, in vivo, po, 6 weeks): 100%
- side effects ([1]; oral PA 6 weeks): no evidence of side effects
- weight and water consumption vs vehicle-treated controls ([1]; oral PA 6 weeks): no difference
- mineralisation (alizarin red staining) [2]: higher levels of mineralisation
- mRNA levels of osteogenic genes Runx2 and OCN (Runx2 and OCN): higher levels
- osteoblastogenesis / mineralisation (alizarin red) [3]: accelerated mineralisation; also recorded: stimulate osteoblastogenesis
